Target: T1, Ba/F3 cell EGFR Exon20 ins NPH (Homo sapiens, UniProt P00533, INS773NPH)
T1 construct: expressed in transfected cells; host or cells: Ba/F3
Test: Ba/F3 cell proliferation suppression, EGFR Exon20 ins NPH
Type: cell-based
Conditions: GI50 class; Ba/F3 cell line with NPH inserted at Exon20 of EGFR; 72 hours
Procedure, shortened: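 Cells (3000–5000/well) plated 24 h before compound, 12-point 3-fold dilutions at 0.3 nM to 50 um final; Ba/F3 lines grown with 5 ng/ml IL-3. Viability by CellTiter-Glo luminescence after 72 h, growth ratio vs control, GI50 from curves; triplicate.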

| Structure (SMILES) | Ba/F3 (NPH) Activity |
| --- | --- |
| C=CC(=O)Nc1cc(Nc2cc(N3OCC[C@@H]3Cc3cccc(Cl)c3F)ncn2)c(OC)cc1N1CCC(N2CCN(C3CC3)[C@@H](C)C2)CC1 [compound 1018, N-(5-((6-((S)-3-(3-chloro-2-fluorobenzyl)isoxazolidine-2-yl)pyrimidine-4-yl)amino)-2-(4-((S)-4-cyclopropyl-3-methylpiperazine-1-yl)piperidine-1-yl)-4-methoxyphenyl) acrylamide] | A (GI50 < 50 nM) |
| C=CC(=O)Nc1cc(Nc2cc(N3OCC[C@@H]3c3ccc(F)cc3F)ncn2)c(OC)cc1N1CCC(N2CCOCC2)CC1 [compound 378, N-(5-((6-((R)-3-(2,4-difluorophenyl)isoxazolidine-2-yl)pyrimidine-4-yl)amino)-4-methoxy-2-(4-morpholinopiperidine-1-yl)phenyl)acrylamide] | A (GI50 < 50 nM) |
| C=CC(=O)Nc1cc(Nc2cc(N3OCC[C@@H]3c3ccccc3)ncn2)c(OC)cc1N1C[C@H]2C[C@@H]1CO2 [Example 33, N-(2-((1R,4R)-2-oxa-5-azabicyclo [2.2.1]heptane-5-yl)-4-methoxy-5-((6((R)-3-phenylisoxazolidine-2-yl)pyrimidine-4-yl)amino)phenyl) acrylamide] | A (GI50 < 50 nM) |
| C=CC(=O)Nc1cc(Nc2cc(N3OCC[C@@H]3c3cc(F)ccc3F)ncn2)c(OC)cc1N1C[C@@H]2CCN(C)[C@@H]2C1 [compound 893, N-(5-((6-((R)-3-(2,5-difluorophenyl)isoxazolidine-2-yl)pyrimidine-4-yl)amino)-4-methoxy-2-((3aS,6aS)-1-methylhexahydropyrrolo [3,4-b]pyrrole-5(1H)-yl)phenyl) acrylamide] | A (GI50 < 50 nM) |
| C=CC(=O)Nc1cc(Nc2cc(N3OCC[C@@H]3c3cccc(F)c3)ncn2)c(OC)cc1-n1ccnc1C [compound 861, N-(5-((6-((R)-3-(3-fluorophenyl)isoxazolidine-2-yl)pyrimidine-4-yl)amino)-4-methoxy-2-(2-methyl-1H-imidazole-1-yl)phenyl)acrylamide] | B (50 nM ≤ GI50 < 500 nM) |
| C=CC(=O)Nc1cc(Nc2cc(N3OCC[C@@H]3c3ccc(F)cc3F)ncn2)c(OC)cc1N1CCC(N2CCC(N(C)C)CC2)CC1 [compound 478, N-(5-((6-((R)-3-(2,4-difluorophenyl)isoxazolidine-2-yl)pyrimidine-4-yl)amino)-2-(4-(dimethylamino)-[1,4'-bipiperidine]-1'-yl)-4-methoxyphenyl) acrylamide] | A (GI50 < 50 nM) |
| C=CC(=O)Nc1cc(Nc2cc(N3OCC[C@@H]3c3ccc(F)c(Cl)c3)ncn2)c(OC)cc1N1CCC(N2CCN(CC3CC3)CC2)CC1 [Example 94, N-(5-((6-((R)-3-(3-chloro-4-fluorophenyl)isoxazolidine-2-yl)pyrimidine-4-yl)amino)-2-(4-(4-(cyclopropylmethyl)piperazine-1-yl)piperidine-1-yl)-4-methoxyphenyl) acrylamide] | A (GI50 < 50 nM) |
| C=CC(=O)Nc1cc(Nc2cc(N3OCC[C@@H]3c3cccc(C)c3F)ncn2)c(OC)cc1N1CCOCC1 [compound 844, N-(5-((6-((R)-3-(2-fluoro-3-methylphenyl)isoxazolidine-2-yl)pyrimidine-4-yl)amino)-4-methoxy-2-morpholinophenyl) acrylamide] | A (GI50 < 50 nM) |
| C=CC(=O)Nc1cc(Nc2cc(N3OCC[C@@H]3c3ccc(Cl)c(Cl)c3)ncn2)c(OC)cc1N1CCN(C)CC1 [compound 670, N-(5-((6-((R)-3-(3,4-dichlorophenyl)isoxazolidine-2-yl)pyrimidine-4-yl)amino)-4-methoxy-2-(4-methylpiperazine-1-yl)phenyl)acrylamide] | A (GI50 < 50 nM) |
| C=CCN1CCN(C2CCN(c3cc(OC)c(Nc4cc(N5OCC[C@@H]5c5cc(F)cc(F)c5)ncn4)cc3NC(=O)C=C)CC2)CC1 [Example 87, N-(2-(4-(4-allylpiperazine-1-yl)piperidine-1-yl)-5-((6-((R)-3-(3,5-difluorophenyl)isoxazolidine-2-yl)pyrimidine-4-yl)amino)-4-methoxyphenyl) acrylamide] | A (GI50 < 50 nM) |
| C=CC(=O)Nc1cc(Nc2cc(N3OCC[C@@H]3c3cccc(Cl)c3)ncn2)c(OC)cc1N1CCC(N2CCN(C3CC3)CC2)CC1 [Example 138, N-(5-((6-((R)-3-(3-chlorophenyl)isoxazolidine-2-yl)pyrimidine-4-yl)amino)-2-(4-(4-cyclopropylpiperazine-1-yl)piperidine-1-yl)-4-methoxyphenyl) acrylamide] | A (GI50 < 50 nM) |
| C=CC(=O)Nc1cc(Nc2cc(N3OCC[C@@H]3c3ccccc3)ncn2)c(OC)cc1N1CCN(C2CCCC2)CC1 [Example 279, N-(2-(4-cyclopentylpiperazine-1-yl)-4-methoxy-5-((6-((R)-3-phenylisoxazolidine-2-yl)pyrimidine-4-yl)amino)phenyl) acrylamide] | A (GI50 < 50 nM) |
| C=CC(=O)Nc1cc(Nc2cc(N3OCC[C@@H]3c3ccc(C)nc3)ncn2)c(OC)cc1N1CCOCC1 [Example 43] | B (50 nM ≤ GI50 < 500 nM) |
| C=CC(=O)Nc1cc(Nc2cc(N3OCC[C@H]3Cc3ccccc3)ncn2)c(OC)cc1N1CCOCC1 [compound 966, N-(5-((6-((R)-3-benzylisoxazolidine-2-yl)pyrimidine-4-yl)amino)-4-methoxy-2-morpholinophenyl) acrylamide] | C (500 nM ≤ GI50 < 5000 nM) |
| C=CC(=O)Nc1cc(Nc2cc(N3OCC[C@@H]3c3cccc(F)c3)ncn2)c(OC)cc1N1CCC(N2C[C@@H]3C[C@H]2CN3C)CC1 [compound 837, N-(5-((6-((R)-3-(3-fluorophenyl)isoxazolidine-2-yl)pyrimidine-4-yl)amino)-4-methoxy-2-(4-((1S, 4S)-5-methyl-2,5-diazabicyclo[2.2.1]heptane-2-yl)piperidine-1-yl)phenyl)acrylamide] | A (GI50 < 50 nM) |
| C=CC(=O)Nc1cc(Nc2cc(N3OCC[C@@H]3c3ccc(Cl)cc3)ncn2)c(OC)cc1N1CCC(N2CC[C@@H](N(C)C)C2)CC1 [compound 783, N-(5-((6-((R)-3-(4-chlorophenyl)isoxazolidine-2-yl)pyrimidine-4-yl)amino)-2-(4-((R)-3-(dimethylamino)pyrolidine-1-yl)piperidine-1-yl)-4-methoxyphenyl) acrylamide] | A (GI50 < 50 nM) |
| C=CC(=O)Nc1cc(Nc2cc(N3OCC[C@@H]3c3ccc(Cl)c(Cl)c3)ncn2)c(OC)cc1N1CCC(N(C)C)CC1 [compound 677, N-(5-((6-((R)-3-(3,4-dichlorophenyl)isoxazolidine-2-yl)pyrimidine-4-yl)amino)-2-(4-(dimethylamino)piperidine-1-yl)-4-methoxyphenyl) acrylamide] | A (GI50 < 50 nM) |
| C#Cc1cccc([C@H]2CCON2c2cc(Nc3cc(NC(=O)C=C)c(N4CCC(N(C)C)CC4)cc3OC)ncn2)c1 [compound 647, N-(2-(4-(dimethylamino)piperidine-1-yl)-5-((6-((R)-3-(3-ethynylphenyl)isoxazolidine-2-yl)pyrimidine-4-yl)amino)-4-methoxyphenyl) acrylamide] | A (GI50 < 50 nM) |
| C=CC(=O)Nc1cc(Nc2cc(N3OCC[C@@H]3c3cccc(Cl)c3F)ncn2)c(OC)cc1N1CCC(N2C[C@@H](C)O[C@@H](C)C2)CC1 [compound 706, N-(5-((6-((R)-3-(3-chloro-2-fluorophenyl)isoxazolidine-2-yl)pyrimidine-4-yl)amino)-2-(4-((2S,6R)-2,6-dimethylmorpholino)piperidine-1-yl)-4-methoxyphenyl) acrylamide] | A (GI50 < 50 nM) |
| C=CC(=O)Nc1cc(Nc2cc(N3OCC[C@@H]3c3cccc(Cl)c3)ncn2)c(OC)cc1N1CCC(N2CC[C@@H](N(C)C)C2)CC1 [compound 413, N-(5-((6-((R)-3-(3-chlorophenyl)isoxazolidine-2-yl)pyrimidine-4-yl)amino)-2-(4-((R)-3-(dimethylamino)pyrolidine-1-yl)piperidine-1-yl)-4-methoxyphenyl) acrylamide] | A (GI50 < 50 nM) |
| C=CC(=O)Nc1cc(Nc2cc(N3OCC[C@@H]3c3cccc(C#N)c3)ncn2)c(OC)cc1N1CCC(N2CCN(C3CC3)C[C@H]2C)CC1 [Example 131, N-(5-((6-((R)-3-(3-cyanophenyl)isoxazolidine-2-yl)pyrimidine-4-yl)amino)-2-(4-((R)-4-cyclopropyl-2-methylpiperazine-1-yl)piperidine-1-yl)-4-methoxyphenyl) acrylamide] | A (GI50 < 50 nM) |
| C=CC(=O)Nc1cc(Nc2cc(N3OCC[C@@H]3c3cc(F)cc(F)c3)ncn2)c(OC)cc1N1CCN(C)C[C@H]1C [compound 918, N-(5-((6-((R)-3-(3,5-difluorophenyl)isoxazolidine-2-yl)pyrimidine-4-yl)amino)-2-((R)-2,4-dimethylpiperazine-1-yl)-4-methoxyphenyl) acrylamide] | A (GI50 < 50 nM) |
| C=CC(=O)Nc1cc(Nc2cc(N3OCC[C@@H]3c3cc(F)cc(F)c3)ncn2)c(OC)cc1OCCC(C)(C)OC [compound 495, N-(5-((6-((R)-3-(3,5-difluorophenyl)isoxazolidine-2-yl)pyrimidine-4-yl)amino)-4-methoxy-2-(3-methoxy-3-methylbutoxy)phenyl) acrylamide] | A (GI50 < 50 nM) |
| C=CC(=O)Nc1cc(Nc2cc(N3OCC[C@@H]3c3ccc(Cl)cc3F)ncn2)c(OC)cc1N1CCC(N2CC[C@H](N(C)C)C2)CC1 [compound 405, N-(5-((6-((R)-3-(4-chloro-2-fluorophenyl)isoxazolidine-2-yl)pyrimidine-4-yl)amino)-2-(4-((S)-3-(dimethylamino)pyrolidine-1-yl)piperidine-1-yl)-4-methoxyphenyl) acrylamide] | B (50 nM ≤ GI50 < 500 nM) |

Source: patent US12157730B2, “Heteroaryl derivative, method for producing same, and pharmaceutical composition comprising same as effective component” (VORONOI INC., priority 2019, dated 2024)
